Assay results published in ChEMBL document CHEMBL4622958, “Tetrazoles as anticancer agents: A review on synthetic strategies, mechanism of action and SAR studies” (Bioorg Med Chem, 2020).
pEC50, pIC50: −log10 of the molar value. In brackets after ≈: the same amount, converted by molar mass. Counter-ions that a name gives are not always drawn.

What was measured:
U2OS [1] = assay: Cytotoxicity against human U2OS cells assessed as reduction in cell viability by CellTiter 96 non-radioactive cell proliferation assay; format: functional, cell-based
U2OS [2] = assay: Cytotoxicity against human U2OS cells assessed as reduction in cell viability at 20 uM by CellTiter 96 non-radioactive cell proliferation assay relative to control; format: functional
HUVEC = assay: Cytotoxicity against HUVEC assessed as reduction in cell viability; format: cell-based; conditions: Homo sapiens
CCRF-CEM [3] = assay: Cytotoxicity against human CCRF-CEM cells assessed as reduction in cell viability at 50 uM after 48 hrs by MTT assay relative to control; format: functional; conditions: values are per cent of control
CCRF-CEM [4] = assay: Cytotoxicity against human CCRF-CEM cells assessed as reduction in cell viability at 25 uM after 24 hrs by MTT assay relative to control; format: functional; conditions: values are per cent of control
CCRF-CEM [5] = assay: Cytotoxicity against human CCRF-CEM cells assessed as reduction in cell viability at 10 uM after 48 hrs by MTT assay relative to control; format: functional; conditions: values are per cent of control
CCRF-CEM [6] = assay: Cytotoxicity against human CCRF-CEM cells assessed as reduction in cell viability at 25 uM after 48 hrs by MTT assay relative to control; format: functional; conditions: values are per cent of control
CCRF-CEM [7] = assay: Cytotoxicity against human CCRF-CEM cells assessed as reduction in cell viability at 10 uM after 24 hrs by MTT assay relative to control; format: functional; conditions: values are per cent of control
CCRF-CEM [8] = assay: Cytotoxicity against human CCRF-CEM cells assessed as reduction in cell viability at 50 uM after 24 hrs by MTT assay relative to control; format: functional; conditions: values are per cent of control
MCF7 [9] = assay: Cytotoxicity against human MCF7 cells assessed as reduction in cell viability after 48 hrs by MTT assay; format: functional, cell-based; conditions: MCF7, 48 h
HOP-62 = assay: Growth inhibition of human HOP62 cells after 48 hrs by MTT assay; format: functional; conditions: HOP-62, 48 h
HeLa = assay: Cytotoxicity against human HeLa cells assessed as reduction in cell viability after 48 hrs by MTT assay; format: functional, cell-based
[10] = Half life in human liver microsome; format: ADME; conditions: liver microsomes
HepG2 [11] = assay: Anticancer activity against human HepG2 cells after 48 hrs by MTT assay; format: functional, cell-based; conditions: HepG2, 48 h
A549 = assay: Anticancer activity against human A549 cells after 48 hrs by MTT assay; format: functional, cell-based; conditions: A549, 48 h
HT-29 = assay: Anticancer activity against human HT-29 cells after 48 hrs by MTT assay; format: functional, cell-based; conditions: HT-29, 48 h
MCF7 [12] = assay: Anticancer activity against human MCF7 cells after 48 hrs by MTT assay; format: functional, cell-based; conditions: MCF7, 48 h
MCF7 [13] = assay: Growth inhibition of human MCF7 cells after 48 hrs by MTT assay; format: functional; conditions: MCF7, 48 h
HepG2 [14] = assay: Anticancer activity against human HepG2 cells after 48 hrs by SRB assay; conditions: HepG2, 48 h

For `CC(C)(C)n1nnc([C@H](CCCNC(=N)CCl)NC(=O)c2ccc(-c3ccccc3)cc2)n1`, the pEC50 (U2OS [1]) was 5.00 and the Activity (U2OS [2]) was 0%.
In the case of `CCC(C)n1ncn(-c2ccc(N3CCN(c4ccc(OC[C@@H]5CO[C@@](Cn6nnnc6-c6ccccc6)(c6ccc(Cl)cc6Cl)O5)cc4)CC3)cc2)c1=O` (some centres undefined), the pIC50 (HUVEC) was 6.92.
`CCC(C)n1ncn(-c2ccc(N3CCN(c4ccc(OC[C@@H]5CO[C@@](Cn6ncnn6)(c6ccc(Cl)cc6Cl)O5)cc4)CC3)cc2)c1=O` (some centres undefined) gave a pIC50 (HUVEC) of 6.91.
With `CCC(C)n1ncn(-c2ccc(N3CCN(c4ccc(OC[C@@H]5CO[C@@](Cn6nnnc6C)(c6ccc(Cl)cc6Cl)O5)cc4)CC3)cc2)c1=O` (some centres undefined) the pIC50 (HUVEC) was 7.00.
In the case of `Clc1ccccc1-c1nnnn1CCCn1cnc2c(Br)c(Br)c(Br)c(Br)c21`, the viability, % of control at 50 µM (CCRF-CEM [3]) was 0%, the viability, % of control at 25 µM (CCRF-CEM [4]) was 1% and the viability, % of control at 10 µM (CCRF-CEM [5]) was 51%. It also gave a viability, % of control at 25 µM (CCRF-CEM [6]) of 1%, a viability, % of control at 10 µM (CCRF-CEM [7]) of 65% and a viability, % of control at 50 µM (CCRF-CEM [8]) of 2%.
For `CC(C)(C)n1nnc([C@H](CCCNC(=N)CBr)NC(=O)c2ccc(-c3ccccc3)cc2)n1`, the pEC50 (U2OS [1]) was 4.35 and the Activity (U2OS [2]) was 50%.
In the case of `Brc1c(Br)c(Br)c2c(ncn2CCCn2nnnc2-c2ccccc2)c1Br`, the viability, % of control at 50 µM (CCRF-CEM [3]) was 0%, the viability, % of control at 25 µM (CCRF-CEM [4]) was 4% and the viability, % of control at 10 µM (CCRF-CEM [5]) was 57%. It also gave a viability, % of control at 25 µM (CCRF-CEM [6]) of 0%, a viability, % of control at 10 µM (CCRF-CEM [7]) of 67% and a viability, % of control at 50 µM (CCRF-CEM [8]) of 2%.
`CCOC(=O)Cn1nnnc1/C(=C/c1ccc(F)cc1)NC(=O)c1ccccc1` gave a pIC50 (MCF7 [9]) of 4.32.
Work on `O=[N+]([O-])c1ccc(-c2nnnn2-c2ccc(-c3nc4ccccc4o3)cc2)cc1` yielded a GI50 (HOP-62) of 1.22 µM.
For `O=[N+]([O-])c1cccc(-c2nnnn2-c2ccc(-c3nc4ccccc4o3)cc2)c1`, the GI50 (HOP-62) was 2.9 µM.
In the case of `Clc1ccccc1-c1nnn(CCCn2cnc3c(Br)c(Br)c(Br)c(Br)c32)n1`, the viability, % of control at 50 µM (CCRF-CEM [3]) was 42%, the viability, % of control at 25 µM (CCRF-CEM [4]) was 96% and the viability, % of control at 10 µM (CCRF-CEM [5]) was 104%. The viability, % of control at 25 µM (CCRF-CEM [6]) was 89%, the viability, % of control at 10 µM (CCRF-CEM [7]) was 102% and the viability, % of control at 50 µM (CCRF-CEM [8]) was 68%.
`CCOC(=O)Cn1nnnc1/C(=C/c1ccc(OC)cc1)NC(=O)c1ccccc1` gave a pIC50 (MCF7 [9]) of 4.35.
`Fc1ccc(/C=C/c2nc3ccc(Br)cc3c3nnnn23)cc1` gave a pIC50 (MCF7 [9]) of 4.68 and a pIC50 (HeLa) of 4.65.
With `Fc1ccc(-c2ccc3nc(/C=C/c4ccccc4)n4nnnc4c3c2)cc1` the pIC50 (MCF7 [9]) was less than 3.70 and the pIC50 (HeLa) was less than 3.70.
Compound `Brc1ccc2nc(/C=C/c3ccccc3)n3nnnc3c2c1` has a pIC50 (MCF7 [9]) of 5.02 and a pIC50 (HeLa) of 5.14.
`COc1cc(-c2nnnn2-c2ccc(-c3nc4ccccc4o3)cc2)cc(OC)c1OC` gave a GI50 (HOP-62) of 1.67 µM.
With `O=C(NC(=O)Nc1ccc(F)cc1F)Nc1ccc(Oc2ccnc(-n3cnnn3)c2)c(F)c1` the half-life [10] was 9.17 h, the pIC50 (HepG2 [11]) was 5.24 and the pIC50 (A549) was 4.97. The pIC50 (HT-29) was 5.22 and the pIC50 (MCF7 [12]) was 5.01.
With `O=C(NC(=O)Nc1ccc(Oc2ccnc(-n3cnnn3)c2)c(F)c1)Nc1cccc(F)c1` the half-life [10] was 2.28 h, the pIC50 (HepG2 [11]) was 6.26 and the pIC50 (A549) was 5.20. It also gave a pIC50 (HT-29) of 4.69 and a pIC50 (MCF7 [12]) of 5.11.
`Brc1c(Br)c(Br)c2c(ncn2CCCn2nnc(-c3ccccc3)n2)c1Br` showed a viability, % of control at 50 µM (CCRF-CEM [3]) of 0%, a viability, % of control at 25 µM (CCRF-CEM [4]) of 73% and a viability, % of control at 10 µM (CCRF-CEM [5]) of 105%. For the same compound, the viability, % of control at 25 µM (CCRF-CEM [6]) was 64%, the viability, % of control at 10 µM (CCRF-CEM [7]) was 106% and the viability, % of control at 50 µM (CCRF-CEM [8]) was 4%.
With `CCOC(=O)Cn1nnnc1/C(=C/c1ccc(Cl)cc1)NC(=O)c1ccccc1` the pIC50 (MCF7 [9]) was 4.40.
`Fc1ccc(C#Cc2ccc3nc(/C=C/c4ccccc4)n4nnnc4c3c2)cc1` gave a pIC50 (MCF7 [9]) of less than 3.70 and a pIC50 (HeLa) of less than 3.70.
For `N[C@@H](Cc1ccc(N(CCCl)CCCl)cc1)C(=O)O`, the pIC50 (MCF7 [9]) was 4.21 and the pIC50 (HeLa) was 4.05.
In the case of `COc1cccc2c1C(=O)c1c(O)c3c(c(O)c1C2=O)C[C@@](O)(C(=O)CO)C[C@@H]3O[C@H]1C[C@H](N)[C@H](O)[C@H](C)O1` [DOXORUBICIN HYDROCHLORIDE], the GI50 (HOP-62) was 0.14 µM and the GI50 (MCF7 [13]) was 170 µM.
With `COc1cccc2c1C(=O)c1c(O)c3c(c(O)c1C2=O)C[C@@](O)(C(=O)CO)C[C@@H]3O[C@H]1C[C@H](N)[C@H](O)[C@H](C)O1` [DOXORUBICIN] the IC50 (HepG2 [14]) was 4000 µg/mL (≈ 7.36 mM).
`CNC(=O)c1cc(Oc2ccc(NC(=O)Nc3ccc(Cl)c(C(F)(F)F)c3)cc2)ccn1` [SORAFENIB] gave a pIC50 (HepG2 [11]) of 5.02, a pIC50 (A549) of 4.95 and a pIC50 (HT-29) of 5.00. For the same compound, the pIC50 (MCF7 [12]) was 4.96.
